According to US20150297629A1, “MODULATION OF RENIN-ANGIOTENSIN SYSTEM (RAS) RELATED DISEASES BY ANGIOTENSINOGEN” (Isis Pharmaceuticals, Inc,, priority 2012, published 2015):
Oligonucleotides are written 5' to 3', each unit as a sugar letter and its base; * is a phosphorothioate linkage, no mark a phosphodiester; rarer units and linkages stand in square brackets, end groups in braces. Plain capitals give the bases only. e = 2'-O-(2-methoxyethyl) (MOE); [5mC] = 5-methylcytosine; d = 2'-deoxy (DNA)

How the values were obtained:
[1] = tested on: angiotensinogen mRNA; assay: Real-time PCR of angiotensinogen mRNA in liver and kidney of Sprague-Dawley rats; format: in vivo; settings: relative to PBS control
Description: A control group of rats was injected with phosphate buffered saline (PBS) administered weekly for 4 weeks. The rats were sacrificed at the end of the study at week 4. Whole liver and kidney were harvested for RNA analysis and plasma was collected for protein analysis. RNA was extracted from liver tissue for real-time PCR analysis of angiotensinogen, using primer probe set RTS3550 (forward sequence [NT], designated herein as SEQ ID NO: 18; reverse sequence [NT], designated herein as SEQ ID NO: 19; probe sequence [NT], designated herein as SEQ ID NO: 20). The mRNA levels were normalized using the housekeeping gene, GAPDH. […] Results are presented as percent inhibition of angiotensinogen, relative to control.

[2] = tested on: Sprague-Dawley rats; assay: Blood pressure by tail-cuff volume-pressure method in Sprague-Dawley rats; format: in vivo; settings: after 4 wks of treatments
Description: Groups of Sprague-Dawley rats were injected with 10 mg/kg/week, 20 mg/kg/week, 40 mg/kg/week, or 80 mg/kg/week of ISIS 552668 administered for 4 weeks. A control group of rats was injected with phosphate buffered saline (PBS) administered weekly for 4 weeks. The rats were sacrificed at the end of the study at week 4. Whole liver and kidney were harvested for RNA analysis and plasma was collected for protein analysis.
Systolic blood pressure (SBP), mean arterial pressure (MAP), and diastolic blood pressure (DBP) in the rats was measured by the tail-cuff volume-pressure method (Kent Scientific, Torrington, Conn.).

[3] = tested on: SHR; assay: Mean arterial pressure by tail-cuff method in SHR, Study 3; format: in vivo, Spontaneously hypertensive (SHR) rats; settings: ISIS 552668 and control oligonucleotide 100 mg/kg/week, Captopril 150 mg/kg/day
Description: A control group of SHR was injected with phosphate buffered saline (PBS) administered weekly for 3 weeks. Another control group of SHR was injected with 100 mg/kg/week of a control oligonucleotide (a nucleotide not targeted to angiotensinogen) administered for 3 weeks. […] Mean arterial pressure (MAP) in the rats was measured by the tail-cuff volume-pressure method (Kent Scientific, Torrington, Conn.).

Q: Which results are given for “ISIS 552668: 5-10-5 MOE gapmer CACTGATTTTTGCCCAGGAT (SEQ ID NO: 17), phosphorothioate linkages, 5-methylcytosines, targeted to rat angiotensinogen (antisense e[5mC]*eA*e[5mC]*eT*eG*dA*dT*dT*dT*dT*dT*dG*d[5mC]*d[5mC]*d[5mC]*eA*eG*eG*eA*eT)”?
A: Percent inhibition of angiotensinogen mRNA, Kidney ([1]; 10 mg/kg/wk for 4 weeks): 41%; Percent inhibition of angiotensinogen mRNA, Liver ([1]; 10 mg/kg/wk for 4 weeks): 19%; Percent inhibition of angiotensinogen mRNA, Kidney ([1]; 20 mg/kg/wk for 4 weeks): 68%; Percent inhibition of angiotensinogen mRNA, Liver ([1]; 20 mg/kg/wk for 4 weeks): 59%; Percent inhibition of angiotensinogen mRNA, Kidney ([1]; 40 mg/kg/wk for 4 weeks): 75%; Percent inhibition of angiotensinogen mRNA, Liver ([1]; 40 mg/kg/wk for 4 weeks): 86%; Percent inhibition of angiotensinogen mRNA, Kidney ([1]; 80 mg/kg/wk for 4 weeks): 77%; Percent inhibition of angiotensinogen mRNA, Liver ([1]; 80 mg/kg/wk for 4 weeks): 96%; DBP ([2]; 10 mg/kg/wk): 107 mm Hg; MAP ([2]; 10 mg/kg/wk): 117 mm Hg; SBP ([2]; 10 mg/kg/wk): 138 mm Hg; DBP ([2]; 40 mg/kg/wk): 79 mm Hg; MAP ([2]; 40 mg/kg/wk): 92 mm Hg; SBP ([2]; 40 mg/kg/wk): 118 mm Hg; DBP ([2]; 80 mg/kg/wk): 68 mm Hg; MAP ([2]; 80 mg/kg/wk): 82 mm Hg; SBP ([2]; 80 mg/kg/wk): 109 mm Hg; MAP, Week 1 [3]: 117 mm Hg; MAP, Week 2 [3]: 104 mm Hg; MAP, Week 3 [3]: 109 mm Hg
